In the OligoGym collection one finds target mRNA inhibition data, which are given here for 77 sequences.

Values joined by “and” are separate entries in the source; they are usually repeats but may differ in a detail not shown here. Identical values can stand only once. After the bases stand the sugars from the 5' end (letter, count) and the backbone: PS all phosphorothioate, else s phosphorothioate and o phosphodiester by linkage. Methylation of C is not given here. e = 2'-O-(2-methoxyethyl) (MOE); l = locked nucleic acid (LNA); d = 2'-deoxy (DNA)

Series [1] has as its target DGAT2. The settings on record: ASO.
The target in series [2] is SNHG14. As to conditions: ASO.
The mark [3] stands for this setting: Mouse Primary Neuronal Cell, 0.005 µM.

“AAAAACATGACAGCCAGGGT (sugars e5 d10 e5, PS)”: the target mRNA inhibition in series [1] (HepG2, 0.12 µM) amounted to 31%. Consider “AAAAACCACTGTTGCTGAGC (sugars e5 d10 e5, PS)”, for which the target mRNA inhibition amounted to 62% in series [1] (HepG2, 2.5 µM) and 92% in series [1] (HepG2, 10 µM).

On to “AAAATCCATGTCAGAGAGGC (sugars e5 d10 e5, PS)”, for which the target mRNA inhibition was found to be 64% in series [1] (HepG2, 2.5 µM) and 90% in series [1] (HepG2, 10 µM). Regarding “AAACCACTGTTGCTGAGCTC (sugars e5 d10 e5, PS)”, the target mRNA inhibition in series [1] (HepG2, 2.5 µM) was 71% and 58%; in series [1] (HepG2, 10 µM), 84% and 73%. For the sequence “AAACTTAGGCATGCTTCCTC (sugars e5 d10 e5, PS)”, the target mRNA inhibition amounted to 84% in series [1] (HepG2, 2.5 µM) and 56% in series [1] (HepG2, 10 µM). Consider “AAAGATATAGTTCCTGGTGG (sugars e5 d10 e5, PS)”, for which the target mRNA inhibition in series [1] (HepG2, 0.12 µM) turned out to be 54%. Take “TTACACTTAATTATACTTCC (sugars ldllddldddddddldddll, PS)”: the target mRNA inhibition in series [2] (Human Neuronal Cell, 7.5 µM) was determined as 64%.

On to “TTACCTACATCTCATACT (sugars l2 d14 l2, PS)”, for which the target mRNA inhibition in series [2] (Human Neuronal Cell, 0.2 µM) came out at 5%; in series [2] (Human Neuronal Cell, 1 µM) it was 14%; in series [2] (Human Neuronal Cell, 5 µM) it was 17%; in series [2] (setting [3]), 77.1%. The corresponding values for “TTACCTACATCTCATACTT (sugars l3 d13 l3, PS)” are -12%, -3%, 13% and 86.7%. With “TTACTCTTTGATTTCAT (sugars l3 d11 l3, PS)”, the target mRNA inhibition in series [2] (Human Neuronal Cell, 0.2 µM) is 34%; in series [2] (Human Neuronal Cell, 1 µM), 34%. Consider “TTATACACCATCATTAT (sugars l3 d11 l3, PS)”, for which the target mRNA inhibition in series [2] (Human Neuronal Cell, 0.2 µM) amounted to 47%; in series [2] (Human Neuronal Cell, 1 µM), 52%.

On to “TTATACCTTTCTTTAACC (sugars l4 d12 l2, PS)”, for which the target mRNA inhibition worked out at 38% in series [2] (Human Neuronal Cell, 0.2 µM) and 57% in series [2] (Human Neuronal Cell, 1 µM). In the case of “TTATACCTTTCTTTAACCCT (sugars lddddlddddddddldddll, PS)”, in series [2] (Human Neuronal Cell, 7.5 µM), the target mRNA inhibition was 58%. For the sequence “TTATACCTTTCTTTAACCCT (sugars ldlddlddddddddddddll, PS)”, the target mRNA inhibition in series [2] (Human Neuronal Cell, 7.5 µM) worked out at 56%. For “TTATAGCCATTCTATCT (sugars l1 d1 l1 d9 l5, PS)”, in series [2] (Human Neuronal Cell, 7.5 µM), the target mRNA inhibition amounted to 55%.

As for “TTATAGCCATTCTATCT (sugars l1 d1 l3 d10 l2, PS)”, the target mRNA inhibition in series [2] (Human Neuronal Cell, 7.5 µM) was 67%. On the same count and under the same terms, the same measure for “TTATAGCCATTCTATCT (sugars l1 d10 l1 d1 l4, PS)”: 53%; for “TTATAGCCATTCTATCT (sugars l1 d10 l3 d1 l2, PS)”: 51%. With “TTATAGCCATTCTATCT (sugars l2 d9 l1 d1 l4, PS)”, the target mRNA inhibition in series [2] (Human Neuronal Cell, 7.5 µM) came to 49%. The same measure, in the same setting: the same measure for “TTATAGCCATTCTATCT (sugars l2 d9 l1 d2 l3, PS)”: 53%. Regarding “TTATAGCCATTCTATCT (sugars l2 d13 l2, PS)”, the target mRNA inhibition in series [2] (Human Neuronal Cell, 7.5 µM) came out at 48%. Same read-out and setting: then “TTATAGCCATTCTATCT (sugars l3 d9 l1 d2 l2, PS)”, with 52%; and “TTATAGCCATTCTATCT (sugars l3 d12 l2, PS)”, with 59%.

Consider “TTATAGCCATTCTATCT (sugars l4 d11 l2, PS)”, for which the target mRNA inhibition in series [2] (Human Neuronal Cell, 0.2 µM) was 63%; in series [2] (Human Neuronal Cell, 1 µM), 69%. As for “TTATAGCCATTCTATCT (sugars ldddldddddddlldll, PS)”, the target mRNA inhibition in series [2] (Human Neuronal Cell, 7.5 µM) was 24%. For “TTATAGCCATTCTATCT (sugars lddldddddddldldll, PS)”, the target mRNA inhibition in series [2] (Human Neuronal Cell, 7.5 µM) was determined as 25%.

In the case of “TTATAGCCATTCTATCT (sugars ldlddddddddldllll, PS)”, the target mRNA inhibition in series [2] (Human Neuronal Cell, 7.5 µM) turned out to be 49%. In the case of “TTATAGCCATTCTATCT (sugars ldlddddddddlldlll, PS)”, the target mRNA inhibition in series [2] (Human Neuronal Cell, 7.5 µM) amounted to 43%.

For the sequence “TTATAGCCATTCTATCT (sugars ldlllddddddldddll, PS)”, in series [2] (Human Neuronal Cell, 7.5 µM), the target mRNA inhibition turned out to be 44%. In the case of TTATTCTGACACACTT (sugars l3 d10 l3, PS), the target mRNA inhibition in series [2] (Human Neuronal Cell, 0.2 µM) amounted to 35%; in series [2] (Human Neuronal Cell, 1 µM), 35%.

“TTATTCTTACCGTCTTT (sugars l2 d11 l4, PS)”: the target mRNA inhibition was found to be 61% in series [2] (Human Neuronal Cell, 0.2 µM) and 65% in series [2] (Human Neuronal Cell, 1 µM). Turning to “TTATTTCCATTTATTTTCA (sugars ldldlddddddddllldll, PS)”, the target mRNA inhibition in series [2] (Human Neuronal Cell, 7.5 µM) worked out at 62%.

On to TTCCATGCAAACTTTA (sugars l4 d10 l2, PS), for which the target mRNA inhibition in series [2] (Human Neuronal Cell, 0.2 µM) is 49%; in series [2] (Human Neuronal Cell, 1 µM), 64%. Taken in the same sequence, the figures for “TTCCTTTAATGCTTCTA (sugars l4 d11 l2, PS)” were 55% and 65%. For “TTCTACTATACTTTCCTCT (sugars l1 d13 l1 d2 l2, PS)”, in series [2] (Human Neuronal Cell, 7.5 µM), the target mRNA inhibition amounted to 47%.

Turning to “TTCTACTATACTTTCCTCT (sugars ldddddddddddldlddll, PS)”, the target mRNA inhibition in series [2] (Human Neuronal Cell, 7.5 µM) is 60%. Still for that read-out and setting: then “TTCTGTATACACCATCC (sugars l1 d1 l2 d11 l2, PS)”, with 55%; and “TTCTGTATACACCATCC (sugars l1 d2 l1 d11 l2, PS)”, with 56%; and “TTCTGTATACACCATCC (sugars l3 d1 l1 d10 l2, PS)”, with 54%.

In the case of “TTCTGTATACACCATCC (sugars ldldlddddddddddll, PS)”, the target mRNA inhibition in series [2] (Human Neuronal Cell, 7.5 µM) was determined as 62%. On to “TTGATTCAATTCCCTTA (sugars l2 d10 l1 d2 l2, PS)”, for which the target mRNA inhibition in series [2] (Human Neuronal Cell, 7.5 µM) turned out to be 69%. For the sequence “TTGATTCAATTCCCTTA (sugars l2 d11 l4, PS)”, the target mRNA inhibition in series [2] (Human Neuronal Cell, 0.2 µM) amounted to 60%; in series [2] (Human Neuronal Cell, 1 µM), 69%. With “TTGATTCAATTCCCTTA (sugars lddllddddddllddll, PS)”, the target mRNA inhibition in series [2] (Human Neuronal Cell, 7.5 µM) was 55%. Still for that read-out and setting: then “TTGATTCAATTCCCTTA (sugars ldlldddddddldldll, PS)”, with 68%; and “TTGATTCAATTCCCTTA (sugars lldddddddddldldll, PS)”, with 61%; and “TTGATTCAATTCCCTTA (sugars llddldddddddlddll, PS)”, with 67%.

Take TTGATTCCACCATTAA (sugars l3 d10 l3, PS): the target mRNA inhibition in series [2] (Human Neuronal Cell, 0.2 µM) was 49%; in series [2] (Human Neuronal Cell, 1 µM) it was 28%.

As for “TTGTCAATCTTTATTCT (sugars l4 d11 l2, PS)”, the target mRNA inhibition in series [2] (Human Neuronal Cell, 0.2 µM) turned out to be 33%; in series [2] (Human Neuronal Cell, 1 µM) it was 45%.

“TTTACACTTAATTATACTTC (sugars lddldldddddddlldllll, PS)”: in series [2] (Human Neuronal Cell, 7.5 µM), the target mRNA inhibition was 36%. In the case of “TTTACACTTAATTATACTTC (sugars ldlllddddddddlllddll, PS)”, the target mRNA inhibition in series [2] (Human Neuronal Cell, 7.5 µM) was found to be 48%.

Consider TTTACTCTGCAATACA (sugars l2 d10 l4, PS), for which the target mRNA inhibition in series [2] (Human Neuronal Cell, 0.2 µM) is 45%; in series [2] (Human Neuronal Cell, 1 µM), 60%.

As for “TTTATACCTTTCTTTAACCC (sugars l1 d13 l1 d3 l2, PS)”, the target mRNA inhibition in series [2] (Human Neuronal Cell, 7.5 µM) was found to be 57%. In the case of “TTTATACCTTTCTTTAACCC (sugars l1 d14 l1 d2 l2, PS)”, in series [2] (Human Neuronal Cell, 7.5 µM), the target mRNA inhibition is 53%. As to “TTTATCAATATCTTCTCA (sugars lddddlddddddldllll, PS)”, in series [2] (Human Neuronal Cell, 7.5 µM), the target mRNA inhibition turned out to be 61%. The same measure, in the same setting: the same measure for “TTTATCAATATCTTCTCA (sugars lddlllddddddddldll, PS)”: 67%; for “TTTATCAATATCTTCTCA (sugars lldldldddddddlldll, PS)”: 66%.

On to “TTTATCAATATCTTCTCA (sugars lllddlddddddldldll, PS)”, for which the target mRNA inhibition in series [2] (Human Neuronal Cell, 7.5 µM) came out at 37%. As for “TTTATCAATATCTTCTCAC (sugars lldldlddddddddldlll, PS)”, the target mRNA inhibition in series [2] (Human Neuronal Cell, 7.5 µM) is 63%. Still for that read-out and setting: then “TTTATCAATATCTTCTCACT (sugars ldddddldddddddlddlll, PS)”, with 45%; and “TTTATCAATATCTTCTCACT (sugars lddddlddddddddldddll, PS)”, with 34%. The same measure, in the same setting: then “TTTATCAATATCTTCTCACT (sugars lddlddddddddddlddlll, PS)”, with 53%; and “TTTATCAATATCTTCTCACT (sugars lddlddldddddddddddll, PS)”, with 28%. With “TTTATCTCATGACCACC (sugars l2 d11 l4, PS)”, the target mRNA inhibition in series [2] (Human Neuronal Cell, 0.2 µM) worked out at 54%; in series [2] (Human Neuronal Cell, 1 µM), 56%.

For TTTATGTTTACTTCAT (sugars l3 d10 l3, PS), the target mRNA inhibition came to 33% in series [2] (Human Neuronal Cell, 0.2 µM) and 47% in series [2] (Human Neuronal Cell, 1 µM). The corresponding values for TTTATTAGATTACTCC (sugars l2 d10 l4, PS) are 24% and 17%. “TTTCCATTTATTTCCATTT (sugars lddddldddddddldllll, PS)”: the target mRNA inhibition in series [2] (Human Neuronal Cell, 7.5 µM) was 54%. On the same count and under the same terms, the same measure for “TTTCCATTTATTTCCATTT (sugars lddldldddddddldddll, PS)”: 53%.

For the sequence TTTTAACCAGAGTGGC (sugars l1 d11 l4, PS), the target mRNA inhibition in series [2] (Human Neuronal Cell, 7.5 µM) was 53%. For “TTTTATACCTTTCTTTAACC (sugars ldlddddddddddlddllll, PS)”, the target mRNA inhibition in series [2] (Human Neuronal Cell, 7.5 µM) came to 64%. As to “TTTTTATACCTTTCTTTAAC (sugars ldddlldddddddlddddll, PS)”, the target mRNA inhibition in series [2] (Human Neuronal Cell, 7.5 µM) was determined as 15%. The same measure, in the same setting: the same measure for “TTTTTATACCTTTCTTTAAC (sugars lddldddddddddldlldll, PS)”: 61%.

Regarding “TTTTTATACCTTTCTTTAAC (sugars ldlddldddddddlldddll, PS)”, the target mRNA inhibition in series [2] (Human Neuronal Cell, 7.5 µM) is 23%.

On to “TTTTTATACCTTTCTTTAAC (sugars lldllddddddddllddlll, PS)”, for which the target mRNA inhibition in series [2] (Human Neuronal Cell, 7.5 µM) turned out to be 60%. “TTTTTTCTTACTATCTTCAA (sugars l1 d13 l1 d2 l3, PS)”: the target mRNA inhibition in series [2] (Human Neuronal Cell, 7.5 µM) is 60%. Same read-out and setting: the same measure for “TTTTTTCTTACTATCTTCAA (sugars ldldldldddddddldddll, PS)”: 57%; for “TTTTTTTCTTACTATCTTCA (sugars ldddllddddddddddldll, PS)”: 50%; for “TTTTTTTCTTACTATCTTCA (sugars ldlldddddddddlddldll, PS)”: 59%.
